Where two headings read alike, the source gives them in different places. *1 amine or outer side, *2 acyl side, *3 side chain or, on linkers, in order; H or OH if unused. Where a SMILES comes first, the peptide text is derived from it. Side-chain parts run from the residue outwards. [ ]: non-standard residue; d: D form. The star is where a group is joined. Isobutyryl(2-(3-CN-5-F-Ph)) = CC(C)(C(=O)*)c1cc(F)cc(C#N)c1; C20 diacid = O=C(O)CCCCCCCCCCCCCCCCCCC(=O)*; X75 = C[C@@](Cc1nn[nH]n1)(N[*:1])C(=O)[*:2]; γGlu = O=C(O)[C@H](CCC(=O)[*:2])N[*:1]; Phe(2-F) = N[C@@H](Cc1ccccc1F)C(=O)O; NH(4-Me-phenyl) = Cc1ccc(N*)cc1; β3hE = N[C@@H](CCC(=O)O)CC(=O)O; X60 = O=C(C1(c2cccnc2)CCCC1)*; AEEA = NCCOCCOCC(=O)O; Aib = CC(C)(N)C(=O)O; CO = O=C([*:1])[*:2]; βAla = NCCC(=O)O
Legend:
Assay type in all cases: cell-based
[1] = target: T1, GLP-1 receptor (Homo sapiens, UniProt P43220); experiment: HitHunter cAMP assay, GLP-1 receptor; conditions: for Emax: read-out: Emax GLP-1R
[2] = target: T2, GIP receptor (Homo sapiens, UniProt P48546); experiment: HitHunter cAMP assay, GIP receptor; conditions: for Emax: read-out: Emax GIP-1R
T2 sequence (P48546 22-466): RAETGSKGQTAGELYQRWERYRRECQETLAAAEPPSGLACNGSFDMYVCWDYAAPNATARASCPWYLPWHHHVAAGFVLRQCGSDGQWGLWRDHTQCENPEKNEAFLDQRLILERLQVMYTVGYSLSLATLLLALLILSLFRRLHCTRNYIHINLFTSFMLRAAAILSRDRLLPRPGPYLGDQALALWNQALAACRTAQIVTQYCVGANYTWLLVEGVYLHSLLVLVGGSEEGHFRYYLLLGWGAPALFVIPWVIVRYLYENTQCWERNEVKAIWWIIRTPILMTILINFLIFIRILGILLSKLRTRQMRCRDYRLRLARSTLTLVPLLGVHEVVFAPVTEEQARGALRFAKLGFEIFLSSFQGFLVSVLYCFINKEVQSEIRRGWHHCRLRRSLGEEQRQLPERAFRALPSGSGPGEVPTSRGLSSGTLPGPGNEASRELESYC

[3] = target: T2, GIP receptor; experiment: PathHunter β-arrestin assay, GIP receptor; design: host or cells: PathHunter CHO-K1 GIPR β-Arrestin Cell Line
[4] = target: T1, GLP-1 receptor; experiment: PathHunter β-arrestin assay, GLP-1 receptor; design: host or cells: PathHunter CHO-K1 GLP1R β-Arrestin Cell Line
Experimental: β-arrestin-2 recruitment for GLP-1 receptor or GIP receptor was measured using the DiscoverX PathHunter Detection Kit and PathHunter® CHO-K1 GLPIR β-Arrestin Cell Line or PathHunter® CHO-K1 GIPR β-Arrestin Cell Line, respectively). Briefly, cells were grown in Ham's F12 Nutrient Mix with 10% FBS and lifted with Cell dissociation buffer, Enzyme free, PBS based (ThermoFisher). Harvested cells were pelleted and resuspended in Assay Complete Cell Plating Reagent 2 and 5000 cells per well were plated in tissue culture treated 384-well small volume white assay plates. Plates were then incubated at 37° C. and 5% CO2 overnight. The media was then replaced with fresh Assay Complete Cell Plating Reagent 2. Cells were then treated with 10 nl compound in DMSO using an ECHO 550 acoustic dispenser (Labcyte) in a 20-point dose response format in duplicate for 90 min at 37° C. The assay was then completed according to the manufacturer's instructions. Luminescence was measured using a Perkin Elmer Envision plate reader. Raw data was normalized to the maximum signal from GLP-1 or GIP (high) and DMSO (low). Dose response curves were analyzed using GraphPad Prism 9.0.

[5] = CHO cells stably expressing human GLP-1 receptor, cAMP accumulation, 30 min, read-out: EC50 GLP-1R
[6] = CHO cells, cAMP, normalized to maximum signal from GLP-1 (high) and DMSO (low)
[7] = CHO cells stably expressing GIP receptor, cAMP accumulation, 30 min, read-out: EC50 GIP-1R
[8] = CHO cells, cAMP, normalized to maximum signal from GIP (high) and DMSO (low)
[9] = β-arrestin-2 recruitment, PathHunter CHO-K1 GIPR β-Arrestin Cell Line, 90 min at 37° C., normalized to GIP, read-out: GIPR β Arrestin EC50
[10] = β-arrestin-2 recruitment, PathHunter CHO-K1 GLP1R β-Arrestin Cell Line, 90 min at 37° C., normalized to GLP-1, read-out: GLP-1R β Arrestin EC50

T1 sequence (P43220 24-463): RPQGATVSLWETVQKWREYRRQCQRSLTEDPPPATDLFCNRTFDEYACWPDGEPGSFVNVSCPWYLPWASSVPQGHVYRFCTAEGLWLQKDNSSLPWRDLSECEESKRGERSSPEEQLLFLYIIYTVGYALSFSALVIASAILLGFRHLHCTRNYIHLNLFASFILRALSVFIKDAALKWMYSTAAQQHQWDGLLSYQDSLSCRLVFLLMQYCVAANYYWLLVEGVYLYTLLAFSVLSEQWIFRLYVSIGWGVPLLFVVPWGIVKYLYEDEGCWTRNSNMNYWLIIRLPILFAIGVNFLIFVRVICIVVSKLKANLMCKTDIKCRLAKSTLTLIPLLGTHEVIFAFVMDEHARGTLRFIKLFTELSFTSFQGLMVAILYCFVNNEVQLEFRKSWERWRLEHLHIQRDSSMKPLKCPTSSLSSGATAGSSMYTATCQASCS

| Structure (SMILES) | EC50 [1, 5] [nM] | Emax [1, 6] [%] | EC50 [2, 7] [nM] | Emax [2, 8] [%] | EC50 [3, 9] [nM] | EC50 [4, 10] [nM] | EC50 [1] [nM] | Emax ([1]; CHO) [%] | EC50 [2] [nM] | Emax ([2]; CHO) [%] | EC50 [3] [nM] | EC50 [4] [nM] |
| --- | --- | --- | --- | --- | --- | --- | --- | --- | --- | --- | --- | --- |
| CC[C@H](C)[C@H](NC(=O)[C@H](CC(C)C)NC(=O)[C@H](Cc1c[nH]c2ccccc12)NC(=O)[C@H](CCC(N)=O)NC(=O)[C@@H](NC(=O)[C@H](Cc1ccccc1)NC(=O)[C@H](C)NC(=O)[C@H](CCCCNC(=O)COCCOCCNC(=O)COCCOCCNC(=O)CC[C@H](NC(=O)CCCCCCCCCCCCCCCCCCC(=O)O)C(=O)O)NC(=O)[C@H](CCC(N)=O)NC(=O)[C@H](C)NC(=O)[C@@H](NC(=O)[C@H](CCCCN)NC(=O)[C@H](CC(=O)O)NC(=O)[C@H](CC(C)C)NC(=O)C(C)(C)NC(=O)[C@@H](NC(=O)[C@H](CO)NC(=O)[C@H](Cc1ccc(O)cc1)NC(=O)[C@H](CC(=O)O)NC(=O)[C@H](CO)NC(=O)[C@@H](NC(=O)[C@H](Cc1ccccc1F)NC(=O)[C@@H](NC(=O)CNC(=O)[C@H](CCC(=O)O)NC(=O)CCNC(=O)C1(c2cccnc2)CCCC1)[C@@H](C)O)[C@@H](C)O)[C@@H](C)CC)[C@@H](C)CC)C(C)C)C(=O)N[C@@H](C)C(=O)NCC(=O)NCC(=O)N1CCC[C@H]1C(=O)N[C@@H](CO)C(=O)N[C@@H](CO)C(=O)NCC(=O)N[C@@H](C)C(=O)N1CCC[C@H]1C(=O)N1CCC[C@H]1C(=O)N1CCC[C@H]1C(=O)N[C@@H](CO)C(N)=O [Compound 231] ({X60-βAla}-EGT[Phe(2-F)]TSDYSI[Aib]LDKIAQK([AEEA-AEEA-γGlu-C20 diacid])AFVQWLIAGGPSSGAPPPS-NH2) | 0.1 to 1 | 111 | 0.1 to 1 | 110 | > 1000 | > 1000 | – | – | – | – | – | – |
| CC[C@H](C)[C@H](NC(=O)[C@H](CO)NC(=O)[C@H](Cc1ccc(O)cc1)NC(=O)[C@H](CC(=O)O)NC(=O)[C@H](CO)NC(=O)[C@@H](NC(=O)[C@H](Cc1ccccc1)NC(=O)[C@@H](NC(=O)CNC(=O)[C@H](CCC(=O)O)NC(=O)CCNC(=O)[C@]1(c2ccccc2)CNC(=O)C1)[C@@H](C)O)[C@@H](C)O)C(=O)N[C@@H](Cc1ccc(O)cc1)C(=O)N[C@@H](CC(C)C)C(=O)N[C@@H](CC(=O)O)C(=O)N[C@@H](CCCCN)C(=O)N[C@@H](CCC(N)=O)C(=O)N[C@@H](C)C(=O)N[C@@H](C)C(=O)NC(C)(C)C(=O)N[C@@H](CCC(=O)O)C(=O)N[C@@H](Cc1ccccc1)C(=O)N[C@H](C(=O)N[C@@H](CCCCNC(=O)COCCOCCNC(=O)COCCOCCNC(=O)CC[C@H](NC(=O)CCCCCCCCCCCCCCCCCCC(=O)O)C(=O)O)C(=O)N[C@@H](Cc1c[nH]c2ccccc12)C(=O)N[C@@H](CC(C)C)C(=O)N[C@@H](CC(C)C)C(=O)N[C@@H](C)C(=O)NCC(=O)NCC(=O)N1CCC[C@H]1C(=O)N[C@@H](CO)C(=O)N[C@@H](CO)C(=O)NCC(=O)N[C@@H](C)C(=O)N1CCC[C@H]1C(=O)N1CCC[C@H]1C(=O)N1CCC[C@H]1C(=O)N[C@@H](CO)C(N)=O)C(C)C (single isomer, unassigned) [Compound 102] | 0.1 to 1 | 91 | 1 to 10 | 101 | > 1000 | > 1000 | – | – | – | – | – | – |
| CC[C@H](C)[C@H](NC(=O)[C@H](CC(C)C)NC(=O)[C@H](Cc1c[nH]c2ccccc12)NC(=O)[C@H](CCC(N)=O)NC(=O)[C@@H](NC(=O)[C@H](Cc1ccccc1)NC(=O)[C@H](C)NC(=O)[C@H](CCCCNC(=O)COCCOCCNC(=O)COCCOCCNC(=O)CC[C@H](NC(=O)CCCCCCCCCCCCCCCCCCC(=O)O)C(=O)O)NC(=O)[C@H](CCC(N)=O)NC(=O)[C@H](C)NC(=O)[C@@H](NC(=O)[C@H](CCCCN)NC(=O)[C@H](CC(=O)O)NC(=O)[C@H](CC(C)C)NC(=O)C(C)(C)NC(=O)[C@@H](NC(=O)[C@H](CO)NC(=O)[C@H](Cc1ccc(O)cc1)NC(=O)[C@H](CC(=O)O)NC(=O)[C@H](CO)NC(=O)[C@@H](NC(=O)[C@H](Cc1ccccc1)NC(=O)[C@@H](NC(=O)CNC(=O)C[C@H](CCC(=O)O)NC(=O)CCNC(=O)C(C)(C)c1cc(F)cc(C#N)c1)[C@@H](C)O)[C@@H](C)O)[C@@H](C)CC)[C@@H](C)CC)C(C)C)C(=O)N[C@@H](C)C(=O)NCC(=O)NCC(=O)N1CCC[C@H]1C(=O)N[C@@H](CO)C(=O)N[C@@H](CO)C(=O)NCC(=O)N[C@@H](C)C(=O)N1CCC[C@H]1C(=O)N1CCC[C@H]1C(=O)N1CCC[C@H]1C(=O)N[C@@H](CO)C(N)=O [Compound 116] ({Isobutyryl(2-(3-CN-5-F-Ph))-βAla}-[β3hE]GTFTSDYSI[Aib]LDKIAQK([AEEA-AEEA-γGlu-C20 diacid])AFVQWLIAGGPSSGAPPPS-NH2) | 10 to 100 | 94 | 100 to 1000 | 66 | > 1000 | > 1000 | – | – | – | – | – | – |
| CC[C@H](C)[C@H](NC(=O)[C@H](CC(C)C)NC(=O)[C@H](Cc1c[nH]c2ccccc12)NC(=O)[C@H](CCC(N)=O)NC(=O)[C@@H](NC(=O)[C@H](Cc1ccccc1)NC(=O)[C@H](C)NC(=O)[C@H](CCCCNC(=O)COCCOCCNC(=O)COCCOCCNC(=O)CC[C@H](NC(=O)CCCCCCCCCCCCCCCCCCC(=O)O)C(=O)O)NC(=O)[C@H](CCC(N)=O)NC(=O)[C@H](C)NC(=O)[C@@H](NC(=O)[C@H](CCCCN)NC(=O)[C@H](CC(=O)O)NC(=O)[C@H](CC(C)C)NC(=O)C(C)(C)NC(=O)[C@@H](NC(=O)[C@H](CO)NC(=O)[C@H](Cc1ccc(O)cc1)NC(=O)[C@H](CC(=O)O)NC(=O)[C@H](CO)NC(=O)[C@@H](NC(=O)[C@H](Cc1ccccc1)NC(=O)[C@@H](NC(=O)CNC(=O)[C@H](CCC(=O)O)NC(=O)CCNC(=O)[C@H](C)NC(=O)Nc1ccc(C)cc1)[C@@H](C)O)[C@@H](C)O)[C@@H](C)CC)[C@@H](C)CC)C(C)C)C(=O)N[C@@H](C)C(=O)NCC(=O)NCC(=O)N1CCC[C@H]1C(=O)N[C@@H](CO)C(=O)N[C@@H](CO)C(=O)NCC(=O)N[C@@H](C)C(=O)N1CCC[C@H]1C(=O)N1CCC[C@H]1C(=O)N1CCC[C@H]1C(=O)N[C@@H](CO)C(N)=O [Compound 272] ({NH(4-Me-phenyl)-CO}-A[βAla]EGTFTSDYSI[Aib]LDKIAQK([AEEA-AEEA-γGlu-C20 diacid])AFVQWLIAGGPSSGAPPPS-NH2) | – | – | – | – | – | – | 10 to 100 | 75 | 10 to 100 | 91 | > 1000 | > 1000 |
| CC[C@H](C)[C@H](NC(=O)[C@H](CC(C)C)NC(=O)[C@H](Cc1c[nH]c2ccccc12)NC(=O)[C@H](CCC(N)=O)NC(=O)[C@@H](NC(=O)[C@H](Cc1ccccc1)NC(=O)[C@H](C)NC(=O)[C@H](CCCCNC(=O)COCCOCCNC(=O)COCCOCCNC(=O)CC[C@H](NC(=O)CCCCCCCCCCCCCCCCCCC(=O)O)C(=O)O)NC(=O)[C@H](CCC(N)=O)NC(=O)[C@H](C)NC(=O)[C@@H](NC(=O)[C@H](CCCCN)NC(=O)[C@H](CC(=O)O)NC(=O)[C@H](CC(C)C)NC(=O)C(C)(C)NC(=O)[C@@H](NC(=O)[C@H](CO)NC(=O)[C@H](Cc1ccc(O)cc1)NC(=O)[C@H](CC(=O)O)NC(=O)[C@H](CO)NC(=O)[C@@H](NC(=O)[C@H](Cc1ccccc1)NC(=O)[C@@H](NC(=O)CNC(=O)[C@](C)(Cc1nn[nH]n1)NC(=O)CCNC(=O)C(C)(C)c1cc(F)cc(C#N)c1)[C@@H](C)O)[C@@H](C)O)[C@@H](C)CC)[C@@H](C)CC)C(C)C)C(=O)N[C@@H](C)C(=O)NCC(=O)NCC(=O)N1CCC[C@H]1C(=O)N[C@@H](CO)C(=O)N[C@@H](CO)C(=O)NCC(=O)N[C@@H](C)C(=O)N1CCC[C@H]1C(=O)N1CCC[C@H]1C(=O)N1CCC[C@H]1C(=O)N[C@@H](CO)C(N)=O [Compound 126] ({Isobutyryl(2-(3-CN-5-F-Ph))-βAla}-[X75]GTFTSDYSI[Aib]LDKIAQK([AEEA-AEEA-γGlu-C20 diacid])AFVQWLIAGGPSSGAPPPS-NH2) | 100 to 1000 | 59 | 100 to 1000 | 97 | > 1000 | > 1000 | – | – | – | – | – | – |

Reference: patent US12281149B2, “Modulators of G-protein coupled receptors” (priority 2021, dated 2025)
